We go through 33 compounds from US9598401B2, “Substituted heteroaryl compounds and methods of use thereof” (Sunshine Lake Pharma Co., Ltd., priority 2013, dated 2017).

One experiment has as its target 5-HT1A receptor (Homo sapiens (Human), UniProt P08908). In words: Affinity for human 5-HT1A receptor ([3H]8-OH-DPAT binding, HEK-293 cell homogenates).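 Note: Filter-retained radioactivity counted by scintillation, non-specific binding defined with 10 µM 8-OH-DPAT, Ki derived from percent inhibition of specific radioligand binding versus control.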
A further experiment addresses serotonin transporter (Rattus norvegicus (Rat), UniProt P31652). In words: Inhibitory effect on [3H]5-HT uptake in rat synaptosome. The class given is biochemical. To be noted: rat brain synaptosomes, 37° C., 15 minutes, 0.1 μCi [3H]5-HT. Here is the method:
The synaptosomes (150 μg) prepared from the rat brain were incubated at 37° C. for 15 minutes with 0.1 μCi [^3H]5-HT in the absence or presence of the test compound or the reference compound in a buffer solution containing 106.2 mM NaCl, 4.5 mM KCl, 2.25 mM MgSO4, 1.08 mM NaH2PO4, 22.5 mM NaHCO3, 9.9 mM glucose, 9 μM EGTA and 45 μM ascorbic acid (pH 7.4).
Inhibition of serotonin transporter in rat synaptosome was measured by the concentrations of [^3H]5-HT.

[1] abbreviates: read-out: Ki, binding affinity for 5-HT1A receptor, 0.3 nM [3H]8-OH-DPAT, human HEK-293 cell homogenates, 22° C., 60 minutes.

Where two headings read alike, the source gives them in different places.

Chain of serotonin transporter (P31652 whole entry): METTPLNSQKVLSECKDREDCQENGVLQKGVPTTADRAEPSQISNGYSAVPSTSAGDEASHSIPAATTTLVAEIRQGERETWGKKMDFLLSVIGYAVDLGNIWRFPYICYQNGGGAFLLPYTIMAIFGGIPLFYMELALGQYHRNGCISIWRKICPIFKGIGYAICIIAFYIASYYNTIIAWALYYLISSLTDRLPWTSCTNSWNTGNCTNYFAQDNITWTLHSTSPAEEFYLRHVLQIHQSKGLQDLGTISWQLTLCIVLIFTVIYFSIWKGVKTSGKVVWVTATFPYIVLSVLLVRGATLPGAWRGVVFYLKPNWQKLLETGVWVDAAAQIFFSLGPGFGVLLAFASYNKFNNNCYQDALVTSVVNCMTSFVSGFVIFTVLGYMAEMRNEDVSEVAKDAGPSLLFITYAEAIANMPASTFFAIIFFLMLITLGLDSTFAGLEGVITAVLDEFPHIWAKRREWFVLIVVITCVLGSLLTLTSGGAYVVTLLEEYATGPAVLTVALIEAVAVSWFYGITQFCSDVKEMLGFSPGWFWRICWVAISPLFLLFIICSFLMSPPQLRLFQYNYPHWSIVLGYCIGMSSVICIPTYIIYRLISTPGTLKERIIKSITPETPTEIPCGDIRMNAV
Chain of 5-HT1A receptor (P08908 whole entry): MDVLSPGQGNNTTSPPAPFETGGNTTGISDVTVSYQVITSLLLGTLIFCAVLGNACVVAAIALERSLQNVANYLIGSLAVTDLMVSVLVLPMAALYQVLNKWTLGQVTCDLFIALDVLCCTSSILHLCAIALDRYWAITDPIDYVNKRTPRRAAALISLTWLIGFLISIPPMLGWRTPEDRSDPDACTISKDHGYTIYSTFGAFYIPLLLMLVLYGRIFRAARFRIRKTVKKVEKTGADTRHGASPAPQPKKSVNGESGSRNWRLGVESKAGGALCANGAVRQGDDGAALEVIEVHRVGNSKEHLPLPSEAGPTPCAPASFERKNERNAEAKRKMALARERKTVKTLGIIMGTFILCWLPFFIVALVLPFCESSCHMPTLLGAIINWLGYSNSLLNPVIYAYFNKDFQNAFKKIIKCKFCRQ
Experimental for 5-HT1A receptor: The non-specific binding value was determined by incubating the same mixture in the presence of 10 μM 8-OH-DPAT, which was used as the standard reference compound and tested in each experiment at several concentrations to obtain a competition curve.
Following the incubation, the samples were filtered rapidly under vacuum through glass fiber filter (GF/B, Packard) presoaked with 0.3% PEI and rinsed several times with ice-cold 50 mM Tris-HCl using a 96-sample cell harvester (Unifilter, Packard). The filters were dried and the retained radioactivity was measured in a scintillation counter (Topcount, Packard) using a scintillation cocktail (Microscint 0, Packard). The experimental results were expressed as a percent inhibition of the control radioligand specific binding, and Ki was the inhibition constant.

As a reminder, the Ki is the dissociation constant of the complex between target and ligand, obtained from inhibition or displacement. Turning to `COc1cc(OC)nc(N2CCN(CCCCc3c[nH]c4ccccc34)CC2)n1` [Example 1, 3-(4-(4-(4,6-Dimethoxypyrimidin-2-yl)piperazin-1-yl)butyl)-1H-indole], the inhibitory constant (Ki) at 5-HT1A receptor (setting [1]) amounted to 3.3 nM.

In the case of `COc1ccc2[nH]cc(CCCCN3CCN(c4nc(OC)cc(OC)n4)CC3)c2c1` [Example 2, 3-(4-(4-(4,6-Dimethoxypyrimidin-2-yl)piperazin-1-yl)butyl)-5-methoxy-1H-indole], the Ki on 5-HT1A receptor (setting [1]) came to 1.4 nM.

Regarding `COc1cc(OC)nc(N2CCN(CCCCc3c[nH]c4ccc(Cl)cc34)CC2)n1` [Example 3, 5-Chloro-3-(4-(4-(4,6-dimethoxypyrimidin-2-yl)piperazin-1-yl)butyl)-1H-indole], the Ki on 5-HT1A receptor (setting [1]) came to 1.1 nM.

For orientation: IC50 means the concentration needed to halve the response being measured. Low readings indicate greater potency, high ones weaker potency. For the compound `COc1cc(OC)nc(N2CCN(CCCCc3c[nH]c4ccc(C#N)cc34)CC2)n1` [Example 5, 3-(4-(4-(4,6-Dimethoxypyrimidin-2-yl)piperazin-1-yl)butyl)-1H-indole-5-carbonitrile], the 50% inhibitory concentration (IC50) at serotonin transporter is 11 nM. The Ki on 5-HT1A receptor (setting [1]) was 2.3 nM.

With `COc1cc(OC)nc(N2CCN(CCCc3c[nH]c4ccccc34)CC2)n1` [Example 6, 3-(3-(4-(4,6-Dimethoxypyrimidin-2-yl)piperazin-1-yl)propyl)-1H-indole], 24 nM corresponded to half-maximal inhibition at serotonin transporter (IC50). Besides, the inhibition constant Ki on 5-HT1A receptor (setting [1]) came out at 4.8 nM.

Consider `COc1ccc2[nH]cc(CCCN3CCN(c4nc(OC)cc(OC)n4)CC3)c2c1` [Example 7, 3-(3-(4-(4,6-Dimethoxypyrimidin-2-yl)piperazin-1-yl)propyl)-5-methoxy-1H-indole], for which the inhibition constant Ki at 5-HT1A receptor (setting [1]) was found to be 0.19 nM.

Consider `COc1cc(OC)nc(N2CCN(CCCc3c[nH]c4ccc(Cl)cc34)CC2)n1` [Example 8, 5-Chloro-3-(3-(4-(4,6-dimethoxypyrimidin-2-yl)piperazin-1-yl)propyl)-1H-indole], for which the IC50 at serotonin transporter came out at 81 nM. For the same compound, on 5-HT1A receptor (setting [1]), the Ki came to 2 nM.

As to `COc1cc(OC)nc(N2CCN(CCCc3c[nH]c4ccc(F)cc34)CC2)n1` [Example 9, 3-(3-(4-(4,6-Dimethoxypyrimidin-2-yl)piperazin-1-yl)propyl)-5-fluoro-1H-indole], at serotonin transporter, the IC50 is 4.4 nM. Further, the Ki on 5-HT1A receptor (setting [1]) is 3.4 nM.

As to `Cc1cc(C)nc(N2CCN(CCCCc3c[nH]c4ccccc34)CC2)n1` [Example 11, 3-(4-(4-(4,6-Dimethylpyrimidin-2-yl)piperazin-1-yl)butyl)-1H-indole], at serotonin transporter, the IC50 turned out to be 82 nM. Besides, on 5-HT1A receptor (setting [1]), the inhibition constant (Ki) was found to be 1.1 nM.

`COc1ccc2[nH]cc(CCCCN3CCN(c4nc(C)cc(C)n4)CC3)c2c1` [Example 12, 3-(4-(4-(4,6-Dimethylpyrimidin-2-yl)piperazin-1-yl)butyl)-5-methoxy-1H-indole]: the Ki at 5-HT1A receptor (setting [1]) amounted to 1.1 nM.

For the compound `Cc1cc(C)nc(N2CCN(CCCCc3c[nH]c4ccc(Cl)cc34)CC2)n1` [Example 13, 5-Chloro-3-(4-(4-(4,6-dimethylpyrimidin-2-yl)piperazin-1-yl)butyl)-1H-indole], the Ki at 5-HT1A receptor (setting [1]) was 1.8 nM.

`Cc1cc(C)nc(N2CCN(CCCCc3c[nH]c4ccc(F)cc34)CC2)n1` [Example 14, 3-(4-(4-(4,6-Dimethylpyrimidin-2-yl)piperazin-1-yl)butyl)-5-fluoro-1H-indole] returned an IC50 against serotonin transporter of 12 nM. In addition, at 5-HT1A receptor (setting [1]), the inhibition constant Ki worked out at 1.7 nM.

With `Cc1cc(C)nc(N2CCN(CCCCc3c[nH]c4ccc(C#N)cc34)CC2)n1` [Example 15, 3-(4-(4-(4,6-Dimethylpyrimidin-2-yl)piperazin-1-yl)butyl)-1H-indole-5-carbonitrile], the half-inhibitory concentration (IC50) at serotonin transporter turned out to be 6.9 nM. For the same compound, the Ki on 5-HT1A receptor (setting [1]) was found to be 2.9 nM.

On to `COc1ccc2[nH]cc(CCCN3CCN(c4nc(C)cc(C)n4)CC3)c2c1` [Example 17, 3-(3-(4-(4,6-Dimethylpyrimidin-2-yl)piperazin-1-yl)propyl)-5-methoxy-1H-indole], for which, at 5-HT1A receptor (setting [1]), the Ki stood at 0.29 nM.

In turn, `Cc1cc(C)nc(N2CCN(CCCc3c[nH]c4ccc(Cl)cc34)CC2)n1` [Example 18, 5-Chloro-3-(3-(4-(4,6-dimethylpyrimidin-2-yl)piperazin-1-yl)propyl)-1H-indole] registered a half-maximal inhibitory concentration (IC50) against serotonin transporter of 31 nM. Further, at 5-HT1A receptor (setting [1]), the inhibition constant (Ki) was 0.71 nM.

For the compound `Cc1cc(C)nc(N2CCN(CCCc3c[nH]c4ccc(F)cc34)CC2)n1` [Example 19, 3-(3-(4-(4,6-Dimethylpyrimidin-2-yl)piperazin-1-yl)propyl)-5-fluoro-1H-indole], on serotonin transporter, it took 7.9 nM to reach half-maximal inhibition (IC50). For the same compound, at 5-HT1A receptor (setting [1]), the inhibition constant Ki came to 1.4 nM.

At serotonin transporter, `Cc1cc(C)nc(N2CCN(CCCc3c[nH]c4ccc(C#N)cc34)CC2)n1` [Example 20, 3-(3-(4-(4,6-Dimethylpyrimidin-2-yl)piperazin-1-yl)propyl)-1H-indole-5-carbonitrile] yielded a half-maximal inhibitory concentration (IC50) of 2 nM. Besides, the inhibitory constant (Ki) at 5-HT1A receptor (setting [1]) was 1.1 nM.

At serotonin transporter, `COc1cc(C)nc(N2CCN(CCCCc3c[nH]c4ccc(C#N)cc34)CC2)n1` [Example 21, 3-(4-(4-(4-Methoxy-6-methylpyrimidin-2-yl)piperazin-1-yl)butyl)-1H-indole-5-carbonitrile] returned a 50% inhibitory concentration (IC50) of 2.6 nM. In addition, at 5-HT1A receptor (setting [1]), the Ki is 0.65 nM.

Compound `COc1cc(C)nc(N2CCN(CCCc3c[nH]c4ccc(C#N)cc34)CC2)n1` [Example 22, 3-(3-(4-(4-Methoxy-6-methylpyrimidin-2-yl)piperazin-1-yl)propyl)-1H-indole-5-carbonitrile] showed an IC50 on serotonin transporter of 2.7 nM. Also, the inhibition constant Ki at 5-HT1A receptor was 1.5 nM.

Compound `N#Cc1ccnc(N2CCN(CCCCc3c[nH]c4ccc(F)cc34)CC2)n1` [Example 23, 2-(4-(4-(5-Fluoro-1H-indol-3-yl)butyl)piperazin-1-yl)pyrimidine-4-carbonitrile] displayed an IC50 on serotonin transporter of 6.1 nM. For the same compound, the Ki at 5-HT1A receptor (setting [1]) was determined as 18 nM.

In turn, `N#Cc1ccc2[nH]cc(CCCCN3CCN(c4nccc(C#N)n4)CC3)c2c1` [Example 24, 3-(4-(4-(4-Cyanopyrimidin-2-yl)piperazin-1-yl)butyl)-1H-indole-5-carbonitrile] had an IC50 on serotonin transporter of 1.9 nM. Moreover, on 5-HT1A receptor (setting [1]), the inhibition constant (Ki) came to 6.2 nM.

Take `N#Cc1ccnc(N2CCN(CCCc3c[nH]c4ccc(F)cc34)CC2)n1` [Example 25, 2-(4-(3-(5-Fluoro-1H-indol-3-yl)propyl)piperazin-1-yl)pyrimidine-4-carbonitrile]: inhibition on serotonin transporter was half-maximal at 4.5 nM (IC50). On 5-HT1A receptor (setting [1]), the Ki amounted to 4 nM.

Compound `Fc1ccc2[nH]cc(CCCCN3CCN(c4nccc(C(F)(F)F)n4)CC3)c2c1` [Example 31, 5-Fluoro-3-(4-(4-(4-(trifluoromethyl)pyrimidin-2-yl)piperazin-1-yl)butyl)-1H-indole] displayed an IC50 at serotonin transporter of 16 nM. At 5-HT1A receptor (setting [1]), the Ki turned out to be 2 nM.

In turn, `N#Cc1ccc2[nH]cc(CCCCN3CCN(c4nccc(C(F)(F)F)n4)CC3)c2c1` [Example 32, 3-(4-(4-(4-(Trifluoromethyl)pyrimidin-2-yl)piperazin-1-yl)butyl)-1H-indole-5-carbonitrile] returned a half-maximal inhibitory concentration (IC50) against serotonin transporter of 10 nM. The Ki at 5-HT1A receptor (setting [1]) is 0.7 nM.

On to `Fc1ccc2[nH]cc(CCCN3CCN(c4nccc(C(F)(F)F)n4)CC3)c2c1` [Example 33, 5-Fluoro-3-(3-(4-(4-(trifluoromethyl)pyrimidin-2-yl)piperazin-1-yl)propyl)-1H-indole], for which half-maximal inhibition on serotonin transporter (IC50) required 11 nM. For the same compound, the Ki at 5-HT1A receptor (setting [1]) worked out at 1 nM.

In turn, `N#Cc1ccc2[nH]cc(CCCN3CCN(c4nccc(C(F)(F)F)n4)CC3)c2c1` [Example 34, 3-(3-(4-(4-(Trifluoromethyl)pyrimidin-2-yl)piperazin-1-yl)propyl)-1H-indole-5-carbonitrile] gave an IC50 against serotonin transporter of 5.9 nM. On 5-HT1A receptor, this compound showed an inhibition constant Ki of 0.2 nM.

For the compound `N#Cc1ccc2[nH]cc(CCCCN3CCN(c4ncc(F)cn4)CC3)c2c1` [Example 35, 3-(4-(4-(5-Fluoropyrimidin-2-yl)piperazin-1-yl)butyl)-1H-indole-5-carbonitrile], the half-maximal inhibitory concentration (IC50) against serotonin transporter is 4.7 nM.

`N#Cc1ccc2[nH]cc(CCCN3CCN(c4ncc(F)cn4)CC3)c2c1` [Example 36, 3-(3-(4-(5-Fluoropyrimidin-2-yl)piperazin-1-yl)propyl)-1H-indole-5-carbonitrile]: the IC50 against serotonin transporter worked out at 8.2 nM.

With `CCOC(=O)c1sc(N2CCN(CCCCc3c[nH]c4ccc(C#N)cc34)CC2)nc1C` [Example 39, Ethyl 2-(4-(4-(5-cyano-1H-indol-3-yl)butyl)piperazin-1-yl)-4-methylthiazole-5-carboxylate], at serotonin transporter, inhibition was half-maximal at 2.9 nM (IC50). Further, at 5-HT1A receptor (setting [1]), the inhibition constant (Ki) worked out at 0.79 nM.

On serotonin transporter, `Cc1nc(N2CCN(CCCCc3c[nH]c4ccc(C#N)cc34)CC2)sc1C(N)=O` [Example 43, 2-(4-(4-(5-Cyano-1H-indol-3-yl)butyl)piperazin-1-yl)-4-methylthiazole-5-carboxamide] displayed an IC50 of 0.85 nM. Moreover, the inhibition constant Ki on 5-HT1A receptor (setting [1]) was determined as 12 nM.

In turn, `Cc1nc(N2CCN(CCCc3c[nH]c4ccc(C#N)cc34)CC2)sc1C#N` [Example 48, 2-(4-(3-(5-Cyano-1H-indol-3-yl)propyl)piperazin-1-yl)-4-methylthiazole-5-carbonitrile] gave a 50% inhibitory concentration (IC50) against serotonin transporter of 7.7 nM. For the same compound, at 5-HT1A receptor (setting [1]), the Ki came out at 2.6 nM.

In the case of `CC1CN(c2nccc(C(N)=O)n2)CCN1CCCc1c[nH]c2ccc(C#N)cc12` (stereo not shown) [Example 49, 2-(4-(3-(5-Cyano-1H-indol-3-yl)propyl)-3-methylpiperazin-1-yl)pyrimidine-4-carboxamide], at serotonin transporter, the concentration for half-maximal inhibition (IC50) came to 0.28 nM.

For `CC1CN(c2nccc(C(N)=O)n2)CCN1CCCCc1c[nH]c2ccc(C#N)cc12` (stereo not shown) [Example 50, 2-(4-(4-(5-Cyano-1H-indol-3-yl)butyl)-3-methylpiperazin-1-yl)pyrimidine-4-carboxamide], the IC50 at serotonin transporter was 0.36 nM.
